Results taken from ChEMBL document CHEMBL1201862, “PubChem BioAssay data set” (2004).
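48-hour exposure; five concentrations; linearly interpolated endpoints. GI50 = concentration required for 50% inhibition of growth.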 Calls of active or inactive are those of the source. No stated cut-off is given here; in the data, active = GI50 up to about 1.1 µM and inactive = higher.

What was measured:
Assay in all cases: NCI tumour cell line growth inhibition, 48 h
SW-620 = test system: SW-620
MCF7 = test system: MCF7
SK-MEL-5 = test system: SK-MEL-5
MDA-MB-231 = test system: MDA-MB-231
NCI-H522 = test system: NCI-H522
HCC 2998 = test system: HCC 2998
HT-29 = test system: HT-29
LOX IMVI = test system: LOX IMVI
DU-145 = test system: DU-145
Malme-3M = test system: Malme-3M
SN12C = test system: SN12C
PC-3 = test system: PC-3
TK-10 = test system: TK-10
MDA-MB-435 = test system: MDA-MB-435
NCI-H226 = test system: NCI-H226
HCT-15 = test system: HCT-15
KM12 = test system: KM12
SNB-75 = test system: SNB-75
UACC-257 = test system: UACC-257
A498 = test system: A498

Row | Compound | GI50 (SW-620) | GI50 (MCF7) | GI50 (SK-MEL-5) | GI50 (MDA-MB-231) | GI50 (NCI-H522) | GI50 (HCC 2998) | GI50 (HT-29) | GI50 (LOX IMVI) | GI50 (DU-145) | GI50 (Malme-3M) | GI50 (SN12C) | GI50 (PC-3) | GI50 (TK-10) | GI50 (MDA-MB-435) | GI50 (NCI-H226) | GI50 (HCT-15) | GI50 (KM12) | GI50 (SNB-75) | GI50 (UACC-257) | GI50 (A498)
1 | O=C(O)c1ccccc1CC1Cc2ccccc2C1 | > 100 µM (inactive) | > 100 µM (inactive) | > 100 µM (inactive) | > 100 µM (inactive) | > 100 µM (inactive) | > 100 µM (inactive) | > 100 µM (inactive) | > 100 µM (inactive) | > 100 µM (inactive) | > 100 µM (inactive) | > 100 µM (inactive) | > 100 µM (inactive) | > 100 µM (inactive) | > 100 µM (inactive) | > 100 µM (inactive) | > 100 µM | > 100 µM (inactive) | > 100 µM (inactive) | > 100 µM (inactive) | –
2 | N#Cc1c(=O)c2ccccc2n2ccccc12 | 79.8 µM (inactive) | – | > 100 µM (inactive) | > 100 µM (inactive) | > 100 µM (inactive) | > 100 µM (inactive) | > 100 µM (inactive) | > 100 µM (inactive) | > 100 µM (inactive) | > 100 µM (inactive) | > 100 µM (inactive) | 19.7 µM (inactive) | > 100 µM (inactive) | > 100 µM (inactive) | 24.9 µM (inactive) | > 100 µM | > 100 µM (inactive) | > 100 µM (inactive) | > 100 µM (inactive) | > 100 µM (inactive)
3 | [B].c1ccc([Si](OCCN2CC2)(c2ccccc2)c2ccccc2)cc1 | 14.7 µM (inactive) | 14.5 µM (inactive) | 15.8 µM (inactive) | 14.9 µM (inactive) | 12.9 µM (inactive) | 13.6 µM (inactive) | 14 µM (inactive) | 14.5 µM (inactive) | 13.7 µM (inactive) | 14.9 µM (inactive) | 14.3 µM (inactive) | 13.5 µM (inactive) | 15.5 µM (inactive) | 13.8 µM (inactive) | 16 µM (inactive) | 7.66 µM | 15.6 µM (inactive) | – | 15.3 µM (inactive) | –
4 | Cc1cnc2sn(-c3ccc([N+](=O)[O-])cc3)c(=O)c2c1 | > 100 µM (inactive) | > 100 µM (inactive) | > 100 µM (inactive) | 82.2 µM (inactive) | 34.7 µM (inactive) | > 100 µM (inactive) | > 100 µM (inactive) | 72.6 µM (inactive) | 99.3 µM (inactive) | > 100 µM (inactive) | > 100 µM (inactive) | 66.2 µM (inactive) | 75.2 µM (inactive) | > 100 µM (inactive) | > 100 µM (inactive) | > 100 µM | > 100 µM (inactive) | 23.8 µM (inactive) | – | –
5 | O=C(NCCCCCCNC(=O)c1cc(-c2ccccc2)nc2ccccc12)c1cc(-c2ccccc2)nc2ccccc12 | > 100 µM (inactive) | > 100 µM (inactive) | > 100 µM (inactive) | > 100 µM (inactive) | > 100 µM (inactive) | – | > 100 µM (inactive) | > 100 µM (inactive) | > 100 µM (inactive) | > 100 µM (inactive) | > 100 µM (inactive) | > 100 µM (inactive) | > 100 µM (inactive) | > 100 µM (inactive) | > 100 µM (inactive) | > 100 µM | – | 33.3 µM (inactive) | > 100 µM (inactive) | > 100 µM (inactive)
6 | CC(=O)[C@@H]1C/C(=C\OCc2ccccc2)O[C@H]1C | > 100 µM (inactive) | – | > 100 µM (inactive) | > 100 µM (inactive) | > 100 µM (inactive) | – | > 100 µM (inactive) | 61.2 µM (inactive) | > 100 µM (inactive) | > 100 µM (inactive) | > 100 µM (inactive) | – | > 100 µM (inactive) | > 100 µM (inactive) | > 100 µM (inactive) | > 100 µM | > 100 µM (inactive) | > 100 µM (inactive) | > 100 µM (inactive) | > 100 µM (inactive)
7 | [N-]=[N+]=NC1CC(n2ccc(N)nc2=O)OC1COP(=O)(O)OP(=O)(O)OP(=O)(O)O (centres undefined) | > 100 µM (inactive) | > 100 µM (inactive) | > 100 µM (inactive) | > 100 µM (inactive) | > 100 µM (inactive) | > 100 µM (inactive) | > 100 µM (inactive) | > 100 µM (inactive) | > 100 µM (inactive) | > 100 µM (inactive) | > 100 µM (inactive) | > 100 µM (inactive) | – | > 100 µM (inactive) | > 100 µM (inactive) | > 100 µM | – | > 100 µM (inactive) | > 100 µM (inactive) | –
8 | COC(=O)c1c(C)cccc1C1CN=NC12Cc1ccc(C)c(C)c1C2=O (centres undefined) | 33.4 µM (inactive) | 24.4 µM (inactive) | – | 39.4 µM (inactive) | 12.9 µM (inactive) | 23.5 µM (inactive) | 25.7 µM (inactive) | 3.21 µM (inactive) | 54.6 µM (inactive) | 28.6 µM (inactive) | 50 µM (inactive) | – | > 100 µM (inactive) | 31.4 µM (inactive) | 44.6 µM (inactive) | 23.2 µM | 34.3 µM (inactive) | 96.4 µM (inactive) | 26.2 µM (inactive) | 36.3 µM (inactive)
9 | CC1=CC2(O)OC3(CC2=C(C)C)C(C)CCC13 (centres undefined) | > 100 µM (inactive) | > 100 µM (inactive) | > 100 µM (inactive) | > 100 µM (inactive) | > 100 µM (inactive) | – | > 100 µM (inactive) | > 100 µM (inactive) | > 100 µM (inactive) | > 100 µM (inactive) | > 100 µM (inactive) | – | > 100 µM (inactive) | > 100 µM (inactive) | > 100 µM (inactive) | > 100 µM | > 100 µM (inactive) | 58.5 µM (inactive) | > 100 µM (inactive) | > 100 µM (inactive)
10 | Cc1cccc(/N=N/C(=N\NC(=O)c2cc(Cl)ccc2O)c2ccc(N(CCC#N)CCC#N)cc2C)c1 | 46.7 µM (inactive) | 32.2 µM (inactive) | 34 µM (inactive) | 21.2 µM (inactive) | 20.8 µM (inactive) | 28.5 µM (inactive) | 28.3 µM (inactive) | 31 µM (inactive) | 39.6 µM (inactive) | 28.1 µM (inactive) | 24 µM (inactive) | 25.8 µM (inactive) | 20 µM (inactive) | 47.1 µM (inactive) | 36 µM (inactive) | 27.7 µM | 27.2 µM (inactive) | 37.9 µM (inactive) | 30.7 µM (inactive) | –
11 | Nc1ccc2nc(N)n[n+]([O-])c2c1 | > 100 µM (inactive) | > 100 µM (inactive) | > 100 µM (inactive) | > 100 µM (inactive) | > 100 µM (inactive) | – | > 100 µM (inactive) | > 100 µM (inactive) | > 100 µM (inactive) | – | > 100 µM (inactive) | > 100 µM (inactive) | > 100 µM (inactive) | > 100 µM (inactive) | > 100 µM (inactive) | > 100 µM | > 100 µM (inactive) | 92.7 µM (inactive) | > 100 µM (inactive) | > 100 µM (inactive)
12 | CCOC(=O)N1CCN(c2ccc3ccc(N)nc3n2)CC1 | > 100 µM (inactive) | > 100 µM (inactive) | – | > 100 µM (inactive) | > 100 µM (inactive) | > 100 µM (inactive) | 80.2 µM (inactive) | > 100 µM (inactive) | > 100 µM (inactive) | > 100 µM (inactive) | > 100 µM (inactive) | > 100 µM (inactive) | > 100 µM (inactive) | > 100 µM (inactive) | > 100 µM (inactive) | > 100 µM | > 100 µM (inactive) | > 100 µM (inactive) | > 100 µM (inactive) | –
13 | CCOC(=O)NC(N(C)C(C(C)C)P(=O)(OCC)OCC)(C(F)(F)F)C(F)(F)F (centres undefined) | 4.68 µM (inactive) | > 100 µM (inactive) | > 100 µM (inactive) | > 100 µM (inactive) | > 100 µM (inactive) | – | > 100 µM (inactive) | > 100 µM (inactive) | > 100 µM (inactive) | > 100 µM (inactive) | > 100 µM (inactive) | > 100 µM (inactive) | > 100 µM (inactive) | > 100 µM (inactive) | > 100 µM (inactive) | > 100 µM | > 100 µM (inactive) | > 100 µM (inactive) | > 100 µM (inactive) | > 100 µM (inactive)
14 | CCOC(=O)C1C(=O)C=C(c2cc(C)ccc2O)CC1c1cccc(Br)c1 (centres undefined) | 25 µM (inactive) | 14.9 µM (inactive) | 14.2 µM (inactive) | 19.6 µM (inactive) | 14.7 µM (inactive) | 17.9 µM (inactive) | 18.9 µM (inactive) | 15.6 µM (inactive) | 34.4 µM (inactive) | 16.3 µM (inactive) | 16.9 µM (inactive) | 7.8 µM (inactive) | 17.7 µM (inactive) | 2.39 µM (inactive) | 15.7 µM (inactive) | 3.24 µM | 13.2 µM (inactive) | – | 15.7 µM (inactive) | –
15 | NCCNCC(O)CO (centres undefined) | > 100 µM (inactive) | > 100 µM (inactive) | > 100 µM (inactive) | > 100 µM (inactive) | > 100 µM (inactive) | – | > 100 µM (inactive) | > 100 µM (inactive) | > 100 µM (inactive) | > 100 µM (inactive) | > 100 µM (inactive) | > 100 µM (inactive) | > 100 µM (inactive) | > 100 µM (inactive) | > 100 µM (inactive) | > 100 µM | > 100 µM (inactive) | > 100 µM (inactive) | > 100 µM (inactive) | > 100 µM (inactive)
16 | Cc1cccc(-c2cc(O)c3cccnc3n2)c1 | 0.431 µM (active) | 0.378 µM (active) | 0.467 µM (active) | 2.09 µM (inactive) | 0.553 µM (active) | 1.98 µM (inactive) | 0.264 µM (active) | 0.512 µM (active) | 3.94 µM (inactive) | – | 2.75 µM (inactive) | 1.12 µM (inactive) | – | 0.0298 µM (active) | 4.44 µM (inactive) | 0.299 µM | 0.173 µM (active) | 1.26 µM (inactive) | – | –
